Data as given in patent US6403574B1, “Azetidinecarboxamide derivatives for treating CNS disorders” (Vernalis Research Limited, priority 1998, dated 2002).

Assays:
[1] = test system: 3-MPA-induced seizures in T/O strain mice; assay: Antagonism of 3-MPA-induced seizures; assay type: in vivo, mouse; settings: test drug 30 mg/kg p.o. 60 min before 3-MPA i.v.
Protocol: Antagonism of 3-MPA-Induced Seizures Several animal seizure models are available for the screening and characterisation of anticonvulsant (antiepileptic) drugs. Most models employ a chemical convulsant to induce seizures and the anticonvulsant potencies of novel compounds are measured in terms of their ability to increase the dose of convulsant required to induce a seizure response (or to prolong the latency to seizure onset following a bolus dose of the convulsant). Most chemical convulsants work by blocking the neurotransmitter function of gamma-aminobutyric acid (GABA), the predominant inhibitory neurotransmitter in the mammalian brain. This can be achieved by blocking the postsynaptic action of GABA using pentylenetetrazol or bicuculline, or via a presynaptic action using a GABA synthesis inhibitor to decrease GABA release into the synapse. In this case, the inhibitor of glutamate decarboxylase (GAD), 3-mercaptopropionic acid (3-MPA), was used as the convulsant challenge agent. […] Male albino T/O strain mice (obtained from Tuck) weighing 28-40 g were used in these studies. Animals were assigned randomly to treatment groups and vehicle or test drug (at a dose of 30 mg/kg) were administered p.o. to groups of 12 animals 60 min before the administration of a bolus dose of 3-MPA intravenously. Immediately following 3-MPA administration, each mouse was placed individually into a cage for observation. The seizure response of each animal was scored quantally as present or absent (response or non-response) during the 5 min period immediately following 3-MPA administration. A seizure response was defined as the onset of the initial clonic phase of the seizure (abrupt loss of righting reflex accompanied by vocalisation). The seizure threshold (in terms of mg/kg i.v. of 3-MPA required to evoke a seizure response) was determined in each treatment group by a sequential up/down method followed by modified probit analysis of the quantal data. A range of doses of 3-MPA was prepared (12.5-200.0 mg/kg i.v.) increasing by a constant geometric factor […], which was found in pilot studies to generate suitable data for analysis by this method. In these studies, 3-MPA was obtained from Sigma. Test compounds were prepared as solutions dissolved in 45% w/v aqueous 2-hydroxypropyl-β-cyclodextrin. 3-MPA was dissolved in isotonic saline and its pH adjusted to 6 using 1M sodium hydroxide solution. Drugs were administered in a dose volume of 10 ml/kg body weight. SC=seizure threshold after treatment with test drug SV=seizure threshold in vehicle treated group

[2] = test system: elevated zero-maze model of anxiety; assay: Anxiolytic activity in the elevated zero-maze model; assay type: in vivo, rat; settings: dose of 30 mg/Kg, orally 1 hour prior to zero-maze testing
From the text: Measurement of Anxiolytic Activity in Mice Using the Elevated Zero-maze Model
Food and water are made freely available.
The maze is cleaned with a 5% methanol/water solution and dried thoroughly between test sessions.

[3] = target: GABAA receptor; assay: Binding affinity to the GABAA receptor with [35S]-TBPS; settings: membranes from rat fore-brain; [35S]-TBPS 1 nM; read-out: IC50, concentration required to displace 50% of the specific [35S]-TBPS binding
Protocol: Measurement of Binding Affinity to the GABAA Receptor with [^35S]-TBPS
The ability of test compounds to bind to the GABAA receptor was measured in membranes prepared from rat fore-brain using the procedure described by Green et al (Green, A. R., Misra, A., Murray, T. K., Snape, M. F. & Cross, A. J. Neurophamacology, 1996, 35, 1243-1250).
Binding assays were performed in plastic microtitre plates. In each study total assay volume contained [^35S]-TBPS (1 nM final concentration), membrane preparation and displacing drugs where appropriate. Drug solutions were prepared at a concentration of 10 mM in an appropriate solvent (EtOH, DMSO or H2O) and then diluted with assay buffer. Non-specific binding was determined using GABA. The free ligand concentration was determined by counting aliquots of the [^35S]-TBPS solution. The concentration of test compounds required to displace 50% of the specific binding (IC50) was determined from displacement curves.

C=CCNC(=O)N1CC(OCc2ccc(Cl)cc2)C1 [Example 1, 3-(4-Chlorobenzyloxy)-N-(2-propenyl)azetidine-1-carboxamide]
melting point: 110 to 111 °C
SC = seizure threshold after treatment with test drug [1]: 35.98 mg/kg i.v. of 3-MPA
Anxiolytic activity (increase in the frequency of head dips) [2]: effective

C=CCNC(=O)N1CC(OCc2ccc(Cl)c(Cl)c2)C1 [Example 2, 3-(3,4-Dichlorobenzyloxy)-N-(2-propenyl)azetidine-1-carboxamide]
melting point: 88 to 89 °C
SC = seizure threshold after treatment with test drug [1]: 66.7 mg/kg i.v. of 3-MPA
IC50 [3]: 56 µM

C=CCNC(=O)N1CC(OCc2cccc(C(F)(F)F)c2)C1 [Example 3, 3-(3-(Trifluoromethyl)benzyloxy)-N-(2-propenyl)azetidine-1-carboxamide]
melting point: 108 °C
SC = seizure threshold after treatment with test drug [1]: 129.3 mg/kg i.v. of 3-MPA
IC50 [3]: 87 µM

C=CCNC(=O)N1CC(OCc2ccc(C(F)(F)F)cc2)C1 [Example 4, 3-(4-(Trifluoromethyl)benzyloxy)-N-(2-propenyl)azetidine-1-carboxamide]
melting point: 120 °C
SC = seizure threshold after treatment with test drug [1]: 75.7 mg/kg i.v. of 3-MPA
IC50 [3]: 91 µM

C=CCNC(=O)N1CC(OCc2ccc(F)cc2)C1 [Example 5, 3-(4-Fluorobenzyloxy)-N-(2-propenyl)azetidine-1-carboxamide]
SC = seizure threshold after treatment with test drug [1]: 42.8 mg/kg i.v. of 3-MPA

C=CCNC(=O)N1CC(OC(c2ccc(Cl)cc2)c2ccc(Cl)cc2)C1 [Example 6, 3-(Bis(4-chlorophenyl)methoxy)-N-(2-propenyl)azetidine-1-carboxamide]
IC50 [3]: 64 µM

C[C@@H](O)CNC(=O)N1CC(OC(c2ccc(Cl)cc2)c2ccc(Cl)cc2)C1 [Example 7, (R)-3-(Bis(4-chlorophenyl)methoxy)-N-(2-hydroxypropyl)azetidine-1-carboxamide]
IC50 [3]: 32 µM

C=CCNC(=O)N1CC(OCc2ccc(C#N)cc2)C1 [Example 10]
melting point: 95 to 96 °C

C=CCNC(=O)N1CC(OCc2ccc(-c3ccccc3)cc2)C1 [Example 11]
melting point: 160 °C

C=CCNC(=O)N1CC(OCc2ccc3ccccc3c2)C1 [Example 12]
melting point: 141 to 142 °C

CCCNC(=O)N1CC(OCc2ccc(Cl)c(Cl)c2)C1 [Example 13]
melting point: 89 to 90 °C

C=CCNC(=O)N1CC(OCc2cccc(Cl)c2)C1 [Example 14]
melting point: 67 to 68 °C

C=CCNC(=O)N1CC(OCc2cccc(F)c2)C1 [Example 15]
melting point: 59 to 60 °C

CCCNC(=O)N1CC(OCc2ccc(C(F)(F)F)cc2)C1 [Example 16]
melting point: 128 to 129 °C

CCCNC(=O)N1CC(OCc2cccc(C(F)(F)F)c2)C1 [Example 17]
melting point: 62 to 63 °C

C[C@H](O)CNC(=O)N1CC(OCc2cccc(C(F)(F)F)c2)C1 [Example 18]
melting point: 67 to 68 °C

C[C@@H](O)CNC(=O)N1CC(OCc2cccc(C(F)(F)F)c2)C1 [Example 19]
melting point: 67 to 68 °C

C[C@@H](O)CNC(=O)N1CC(OCc2ccc(C(F)(F)F)cc2)C1 [Example 20]
melting point: 97 to 98 °C

C[C@H](O)CNC(=O)N1CC(OCc2ccc(C(F)(F)F)cc2)C1 [Example 21]
melting point: 97 to 98 °C

C[C@@H](O)CNC(=O)N1CC(OCc2ccc(Cl)c(Cl)c2)C1 [Example 22]
melting point: 88 to 89 °C

C[C@H](O)CNC(=O)N1CC(OCc2ccc(Cl)c(Cl)c2)C1 [Example 23]
melting point: 88 to 89 °C

C[C@H](O)CNC(=O)N1CC(OCc2ccc(Cl)cc2)C1 [Example 24]
melting point: 85 to 86 °C

C#CCNC(=O)N1CC(OCc2cccc(C(F)(F)F)c2)C1 [Example 25]
melting point: 90 to 91 °C

C=CCNC(=O)N1CC(OCc2ccccc2)C1 [Example 26]
melting point: 76 to 77 °C

C[C@H](O)CNC(=O)N1CC(OCc2ccc(F)cc2)C1 [Example 27]
melting point: 73 to 74 °C

C=CCNC(=O)N1CC(OCc2ccccc2C(F)(F)F)C1 [Example 28]
melting point: 63 °C

C=CCNC(=O)N1CC(OCc2cc(F)ccc2F)C1 [Example 29]
melting point: 75 °C

C=CCNC(=O)N1CC(OCc2ccc(Cl)cc2Cl)C1 [Example 30]
melting point: 100 °C

C=CCNC(=O)N1CC(OCc2cc(F)cc(F)c2)C1 [Example 31]
melting point: 79 °C

C=CCNC(=O)N1CC(OCc2ccc(F)c(F)c2)C1 [Example 33]
melting point: 82.5 to 85 °C

C=CCNC(=O)N1CC(OCc2ccc(F)cc2F)C1 [Example 34]
melting point: 91 to 92.5 °C

C=CCNC(=O)N1CC(OCc2cc(C(F)(F)F)cc(C(F)(F)F)c2)C1 [Example 35]
melting point: 80.5 to 81.5 °C

C[C@H](O)CNC(=O)N1CC(OCc2ccc(Cl)cc2)C1 [Example 36]
melting point: 76 to 78 °C

C#CCNC(=O)N1CC(OCc2ccc(Cl)cc2)C1 [Example 37]
melting point: 123 to 124 °C

C#CCNC(=O)N1CC(OCc2ccc(C(C)(C)C)cc2)C1 [Example 38]
melting point: 94 to 96 °C

C[C@@H](O)CNC(=O)N1CC(OCc2ccc(F)cc2)C1 [Example 40]
melting point: 72 to 73 °C

C=CCNC(=O)N1CC(OCc2ccc(C(C)(C)C)cc2)C1 [Example 41]
melting point: 79 to 80 °C

C#CCNC(=O)N1CC(OCc2ccc(F)cc2)C1 [Example 43]
melting point: 94 to 96 °C
